As a reminder, the melting point is the temperature, or range, at which the solid turns liquid.

A value given as a limit tells only on which side of the number the result lay.

The values below come from patent publication US6407094B1, “Glutamate receptor antagonists” (Hoffmann-la Roche Inc., priority 1999, dated 2002).

Consider `N#Cc1cccc(C2=Nc3cc(N4CCC5(CC4)OCCO5)c(C#Cc4ccccc4)cc3NC(=O)C2)c1` [Example 9, 3-[8-(1,4-Dioxa-8-aza-spiro[4.5]dec-8-yl)-4-oxo-7-phenylethynyl-4,5-dihydro-3H-benzo[b][1,4]diazepin-2-yl]-benzonitrile], for which the melting point was 239 to 243 °C (dec.). In turn, `N#Cc1ccsc1C1=CC(=O)Nc2cc(-c3ccccc3F)c(O)cc2N1` [Example 84, 2-[7-(2-Fluoro-phenyl)-8-hydroxy-4-oxo-4,5-dihydro-1H-benzo[b][1,4]diazepin-2yl]-thiophene-3-carbonitrile] came in with a melting point of 242 °C. As for `Cc1cc2c(cc1-c1ccc(F)cc1)NC(=O)CC(c1cccc(-n3ccnc3)c1)=N2` [Example 53, 8-(4-Fluoro-phenyl)-4-(3-imidazol-1-yl-phenyl)-7-methyl-1,3-dihydro-benzo[b][1,4]diazepin-2-one], the figure is 196 °C; as for `CC1(C)OC2CN(c3cc4c(cc3-c3ccc(F)cc3)NC(=O)CC(c3cccc(-n5ccnc5)c3)=N4)CC2O1` (stereo not shown) [Example 49, 7-(2,2-Dimethyl-tetrahydro-[1,3]dioxolo [4,5-c]pyrrol-5-yl)-8-(4-fluoro-phenyl)-4-(3-imidazol-1-yl-phenyl)-1,3-dihydro-benzo[b][1,4]diazepin-2-one], 240 °C (dec.). The result for `N#Cc1cccc(C2=Nc3cc(N4CCC5(CC4)OCCO5)c(-c4ccccc4F)cc3NC(=O)C2)c1` [Example 76, 3-[8-(1,4-Dioxa-8-aza-spiro[4.5]dec-8-yl)-7-(2-fluoro-phenyl)-4-oxo-4,5-dihydro-3H-benzo[b][1,4]diazepin-2-yl]-benzonitrile] reads 253 °C. Take `N#Cc1cccc(C2=Nc3cc(OCC(=O)O)c(C#Cc4ccccc4)cc3NC(=O)C2)c1` [Example 22, [4-(3-Cyano-phenyl)-2-oxo-8-phenylethynyl-2,3-dihydro-1H-benzo[b][1,4]diazepin-7-yloxy]-acetic acid]: the melting point is 257 °C (dec.). The result for `O=C1CC(c2cccc(-n3ccnc3)c2)=Nc2cc(N3CCOC3=O)c(-c3ccc(F)cc3)cc2N1` [Example 59, 8-(4-Fluoro-phenyl)-4-(3-imidazol-1-yl-phenyl)-7-(2-oxo-oxazolidin-3-yl)-1,3-dihydro-benzo[b][1,4]diazepin-2-one] reads 230 °C. As for `COCCOc1cc2c(cc1-c1ccccc1F)NC(=O)CC(c1cccc(C#N)c1)=N2` [Example 87, 3-[7-(2-Fluoro-phenyl)-8-(2-methoxy-ethoxy)-4-oxo-4,5-dihydro-3H-benzo[b][1,4]diazepin-2-yl]-benzonitrile], the figure is 211 to 213 °C; as for `N#Cc1cccc(C2=Nc3cc(SCC(=O)O)c(C#Cc4ccccc4)cc3NC(=O)C2)c1` [Example 13, [4-(3-Cyano-phenyl)-2-oxo-8-phenylethynyl-2,3-dihydro-1H-benzo[b][1,4]diazepin-7-ylsulfanyl]-acetic acid], 202 °C (dec.). As for `COCCOc1cc2c(cc1-c1ccc(F)cc1)NC(=O)CC(c1cccc(-n3ccnc3)c1)=N2` [Example 57, 8-(4-Fluoro-phenyl)-4-(3-imidazol-1-yl-phenyl)-7-(2-methoxy-ethoxy)-1,3-dihydro-benzo[b][1,4]diazepin-2-one], the figure is 196 to 197 °C; as for `COc1cc2c(cc1-c1ccccc1F)NC(=O)CC(c1cccc(C#N)c1)=N2` [Example 67, 3-[7-(2-Fluoro-phenyl)-8-methoxy-4-oxo-4,5-dihydro-3H-benzo[b][1,4]diazepin-2-yl]-benzonitrile], 245 to 247 °C; as for `COC1CCN(c2cc3c(cc2C#Cc2ccccc2)NC(=O)CC(c2cccc(-n4ccnc4)c2)=N3)CC1` [Example 33, 4-(3-Imidazol-1-yl-phenyl)-7-(4-methoxy-piperidin-1-yl)-8-phenylethynyl-1,3-dihydro-benzo[b][1,4]diazepin-2-one], 222 °C.

Take `O=C1CC(c2cccc(-n3ccnc3)c2)=Nc2cc(N3C[C@@H](O)[C@@H](O)C3)c(-c3ccc(F)cc3)cc2N1` [Example 50, 7-(cis-3,4-Dihydroxy-pyrrolidin-1-yl)-8-(4-fluoro-phenyl)-4-(3-imidazol-1-yl-phenyl)-1,3-dihydro-benzo[b][1,4]diazepin-2-one]: the melting point is 244 °C. The result for `COCCOc1cc2c(cc1C#Cc1ccccc1)NC(=O)CC(c1cccc(C(N)=O)c1)=N2` [Example 95, 3-[8-(2-Methoxy-ethoxy)-4-oxo-7-phenylethynyl-4,5-dihydro-3H-benzo[b][1,4]diazepin 2-yl]-benzamide] reads 227 to 230 °C (dec.); that for `O=C1CC(c2cccc(-n3ccnc3)c2)=Nc2cc(OCCO)c(-c3ccc(F)cc3)cc2N1` [Example 58, 8-(4-Fluoro-phenyl)-7-(2-hydroxy-ethoxy)-4-(3-imidazol-1-yl-phenyl)-1,3-dihydro-benzo[b][1,4]diazepin-2-one], 225 °C. The result for `N#Cc1cccc(C2=Nc3cc(CO)c(-c4ccccc4F)cc3NC(=O)C2)c1` [Example 88, 3-[7-(2-Fluoro-phenyl)-8-hydroxymethyl-4-oxo-4,5-dihydro-3H-benzo[b][1,4]diazepin-2-yl]-benzonitrile] reads 90 to 91 °C.

`N#Cc1cccc(C2=Nc3cc(O)c(-c4ccc(F)cc4)cc3NC(=O)C2)c1` [Example 65, 3-[7-(4-Fluoro-phenyl)-8-hydroxy-4-oxo-4,5-dihydro-3H-benzo[b][1,4]diazepin-2-yl]-benzonitrile] showed a melting point above 250 °C.

For the compound `CC(C)(C)NC(=O)COc1cc2c(cc1C#Cc1ccccc1)NC(=O)CC(c1cccc(C#N)c1)=N2` [Example 40, N-tert.-Butyl-2-[4-(3-cyano-phenyl)-2-oxo-8-phenylethynyl-2,3-dihydro-1H-benzo[b][1,4]diazepin-7-yloxy]-acetamide], the melting point is above 250 °C.

`O=C1CC(c2cccc(-n3ccnc3)c2)=Nc2cc(CO)c(-c3ccc(F)cc3)cc2N1` [Example 46, 8-(4-Fluoro-phenyl)-7-hydroxymethyl-4-(3-imidazol-1-yl-phenyl)-1,3-dihydro-benzo[b][1,4]diazepin-2-one] showed a melting point of 180 to 195 °C. As for `COC(=O)Cc1cc2c(cc1C#Cc1ccccc1)NC(=O)CC(c1cccc(C#N)c1)=N2` [Example 14, [4-(3-Cyano-phenyl)-2-oxo-8-phenylethynyl-2,3-dihydro-1H-benzo[b][1,4]diazepin-7-yl]-acetic acid methyl ester], the figure is 236 °C (dec.).

With `O=C1CC(c2cccc(-n3ccnc3)c2)=Nc2cc(N3CC[C@@H](O)C3)c(-c3ccc(F)cc3)cc2N1` [Example 63, 8-(4-Fluoro-phenyl)-7-((R)-3-hydroxy-pyrrolidin-1-yl)-4-(3-imidazol-1-yl-phenyl)-1,3-dihydro-benzo[b][1,4]diazepin-2-one], the melting point lay within 155 to 158 °C. `CN(CCO)c1cc2c(cc1C#Cc1ccc(F)cc1)NC(=O)CC(c1cccc(-n3ccnc3)c1)=N2` [Example 38, 8-(4-Fluoro-phenylethynyl)-7-[(2-hydroxy-ethyl)-methyl-amino]-4-(3-imidazol-1-yl-phenyl)-1,3-dihydro-benzo[b][1,4]diazepin-2-one]: the melting point was 217 °C (dec.).
